The text below walks through data of patent US9309263B2, “Fused multi-cyclic sulfone compounds as inhibitors of beta-secretase and methods of use thereof” (AMGEN INC., priority 2013, dated 2016).

Read-outs that look alike come from different tables or passages of the source.

The target in assay [1] is Beta Secretase enzyme (BACE) (Homo sapiens, UniProt P56817). Nature of the assay: In vitro enzymatic BACE FRET assay. The class given is biochemical. The conditions noted are these: average IC50; read-out: BACE1 FRET assay IC50. The procedure, abridged:
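Enzyme (0.2 nM) pre-incubated 1 h with serially diluted inhibitors in 0.05 M acetate pH 4.2, 10% DMSO, 100 uM genapol. Reaction started with 50 nM fluorophore/quencher peptide FRET substrate, run 1 h, stopped with Tris to neutral pH. Fluorescence read at excitation 488 nm, […].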

In assay [2] the test system is Aβ 40 in conditioned medium of cells stably expressing Amyloid Precursor Protein (APP). Nature of the assay: In vitro BACE cell-based assay (Aβ 40 sandwich ELISA). The conditions noted are these: HEK cell, average IC50. The essentials:
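APP-expressing cells, 24 h pre-culture in DMEM/10% FBS, treated 24 h with 10-point compound dilutions from 100 or 10 μM top, 0.1% DMSO final. Secreted Aβ40 quantified by sandwich ELISA (pAb40 capture, biotinylated 6E10 detection, europium TRF); IC50 from percent inhibition versus concentration.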

Assay [3] has as its target Cathepsin D (Cat D) (Homo sapiens, UniProt P07339). The assay is described as follows: In vitro enzymatic Cathepsin D (Cat D) FRET assay. The class given is biochemical. The procedure, abridged: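 Recombinant CHO-expressed enzyme (9 nM) pre-incubated 1 h with serially diluted inhibitor in 0.05 M citrate pH 3.5, 10% DMSO final, 5 mM CHAPS. Reaction started with 20 nM FRET peptide substrate, run 1 h, stopped with Tris to neutral pH; fluorescence read at ex 500/em 580 nm.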

Setting [4] is: text summary referring to data in Table 2.

Beta Secretase enzyme (BACE), sequence (P56817 46-501): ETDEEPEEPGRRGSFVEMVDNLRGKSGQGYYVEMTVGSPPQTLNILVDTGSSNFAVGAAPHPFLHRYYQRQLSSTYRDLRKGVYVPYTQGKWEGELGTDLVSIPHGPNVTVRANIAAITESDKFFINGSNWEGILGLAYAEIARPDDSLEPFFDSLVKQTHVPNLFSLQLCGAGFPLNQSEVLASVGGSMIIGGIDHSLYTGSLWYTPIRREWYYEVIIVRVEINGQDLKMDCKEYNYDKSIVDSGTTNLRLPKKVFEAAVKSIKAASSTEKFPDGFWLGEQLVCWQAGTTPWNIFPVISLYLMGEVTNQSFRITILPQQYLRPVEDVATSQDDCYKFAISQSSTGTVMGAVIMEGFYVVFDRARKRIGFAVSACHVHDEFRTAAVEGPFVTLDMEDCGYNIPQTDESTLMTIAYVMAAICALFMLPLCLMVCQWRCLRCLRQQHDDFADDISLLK
Cathepsin D (Cat D), sequence (P07339 65-412, species assumed): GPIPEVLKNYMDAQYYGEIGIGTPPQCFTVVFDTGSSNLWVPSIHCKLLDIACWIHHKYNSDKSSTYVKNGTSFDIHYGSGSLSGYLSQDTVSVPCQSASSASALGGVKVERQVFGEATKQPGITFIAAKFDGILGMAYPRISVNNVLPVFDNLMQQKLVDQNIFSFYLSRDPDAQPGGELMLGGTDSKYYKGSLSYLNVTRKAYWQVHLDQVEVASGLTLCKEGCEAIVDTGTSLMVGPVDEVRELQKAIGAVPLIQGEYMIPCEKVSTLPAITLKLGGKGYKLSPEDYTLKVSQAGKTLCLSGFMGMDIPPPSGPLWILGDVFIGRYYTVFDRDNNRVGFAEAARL

Broadly, the IC50 is the midpoint of a concentration-inhibition curve. Take `Cc1cc(Cl)cnc1C(=O)Nc1cnc2c(c1)[C@@]1(C)N=C(N)C3(CCC3)S(=O)(=O)[C@H]1CCO2` [Example 58, N-((4a′S,11b′R)-2′-amino-11b′-methyl-4′,4′-dioxido-4a′,5′,6′,11b′-tetrahydrospiro[cyclobutane-1,3′-pyrido[3′,2′:6,7]oxepino[4,5-b][1,4]thiazin]-10′-yl)-5-chloro-3-methyl-2-pyridinecarboxamide]: the IC50 amounted to 0.014 µM in assay [1]; 0.011 µM in assay [2] (Homo sapiens, HEK293); 656 µM in assay [3] (read-out: CatD IC50).
Consider `Cc1cc(Cl)cnc1C(=O)Nc1cnc2c(c1)[C@@]1(C)N=C(N)C3(CCC3)S(=O)(=O)[C@@H]1CCO2` [Example 59, N-((4a′R,11b′R)-2′-amino-11b′-methyl-4′,4′-dioxido-4a′,5′,6′,11b′-tetrahydrospiro[cyclobutane-1,3′-pyrido[3′,2′:6,7]oxepino[4,5-b][1,4]thiazin]-10′-yl)-5-chloro-3-methyl-2-pyridinecarboxamide], for which the half-inhibitory concentration (IC50) in assay [1] was 0.05 µM; in assay [2] (Homo sapiens, HEK293) it was 0.057 µM; in assay [3] (read-out: CatD IC50), over 400 µM.
As to `COc1cnc2c(Nc3cnc4c(c3)[C@@]3(C)N=C(N)C5(CCC5)S(=O)(=O)[C@@H]3CCO4)nccc2n1` [Example 60], the IC50 in assay [1] is 0.037 µM; in assay [2] (Homo sapiens, HEK293), 0.135 µM; in assay [3] (read-out: CatD IC50), over 400 µM.
Regarding `C[C@]12N=C(N)C3(CCC3)S(=O)(=O)[C@@H]1CCOc1ncc(Nc3nccc4cc(Cl)cnc34)cc12` [Example 61], the IC50 in assay [1] turned out to be 0.018 µM; in assay [2] (Homo sapiens, HEK293), 0.125 µM; in assay [3] (read-out: CatD IC50) it was 680 µM.
On to `Cc1cc(C#N)cnc1C(=O)Nc1cnc2c(c1)[C@@]1(C)N=C(N)C3(CCC3)S(=O)(=O)[C@@H]1CCO2` [Example 62, N-((4a′R,11b′R)-2′-amino-11b′-methyl-4′,4′-dioxido-4a′,5′,6′,11b′-tetrahydrospiro[cyclobutane-1,3′-pyrido[3′,2′:6,7]oxepino[4,5-b][1,4]thiazin]-10′-yl)-5-cyano-3-methyl-2-pyridinecarboxamide], for which the IC50 in assay [1] was 0.015 µM; in assay [2] (Homo sapiens, HEK293), 0.06 µM; in assay [3] (read-out: CatD IC50), over 400 µM.
For the compound `C[C@]12N=C(N)C3(CCC3)S(=O)(=O)[C@@H]1CCOc1ncc(NC(=O)c3ccc(C#N)cn3)cc12` [Example 63, N-((4a′R,11b′R)-2′-amino-1113′-methyl-4′,4′-dioxido-4a′,5′,6′,11b′-tetrahydrospiro[cyclobutane-1,3′-pyrido[3′,2′:6,7]oxepino[4,5-b][1,4]thiazin]-10′-yl)-5-cyano-2-pyridinecarboxamide], the IC50 in assay [1] was 0.036 µM; in assay [2] (Homo sapiens, HEK293), 0.164 µM; in assay [3] (read-out: CatD IC50), 868 µM; in assay [3] (setting [4]) it was over 800 µM.
For `COc1cnc(C(=O)Nc2cnc3c(c2)[C@@]2(C)N=C(N)C4(CCC4)S(=O)(=O)[C@@H]2CCO3)c(C)c1` [Example 64, N-((4a′R,11b′R)-2′-amino-1113′-methyl-4′,4′-dioxido-4a′,5′,6′,11b′-tetrahydrospiro[cyclobutane-1,3′-pyrido[3′,2′:6,7]oxepino[4,5-b][1,4]thiazin]-10′-yl)-5-methoxy-3-methyl-2-pyridinecarboxamide], the IC50 is 0.059 µM in assay [1], 0.184 µM in assay [2] and over 400 µM in assay [3] (read-out: CatD IC50).
As for `Cc1cc(Cl)cnc1C(=O)Nc1ccc2c(c1)[C@@]1(C)N=C(N)C(C)(C)S(=O)(=O)[C@]1(F)CCO2` [Example 65, N-((4aR,11bR)-2-amino-4a-fluoro-3,3,11b-trimethyl-4,4-dioxido-4a,5,6,11b-tetrahydro-3H-[1]benzoxepino[4,5-b][1,4]thiazin-10-yl)-5-chloro-3-methyl-2-pyridinecarboxamide], the IC50 in assay [1] is 0.006 µM; in assay [2] (Homo sapiens, HEK293), 0.074 µM; in assay [3] (read-out: CatD IC50), 324 µM.
The like results for `CC1(C)C(N)=N[C@]2(C)c3cc(NC(=O)c4ccc(Cl)cn4)ccc3OCC[C@@]2(F)S1(=O)=O` [Example 66, N-((4aR,11bR)-2-amino-4a-fluoro-3,3,11b-trimethyl-4,4-dioxido-4a,5,6,11b-tetrahydro-3H-[1]benzoxepino[4,5-b][1,4]thiazin-10-yl)-5-chloro-2-pyridinecarboxamide] were, in that order, 0.008 µM, 0.089 µM and 269 µM.
As to `COc1cnc(C(=O)Nc2ccc3c(c2)[C@@]2(C)N=C(N)C(C)(C)S(=O)(=O)[C@]2(F)CCO3)cn1` [Example 67, N-((4aR,11bR)-2-amino-4a-fluoro-3,3,11b-trimethyl-4,4-dioxido-4a,5,6,11b-tetrahydro-3H-[1]benzoxepino[4,5-b][1,4]thiazin-10-yl)-5-methoxy-2-pyrazinecarboxamide], the IC50 was 0.022 µM in assay [1]; 0.115 µM in assay [2] (Homo sapiens, HEK293); 2920 µM in assay [3] (read-out: CatD IC50); over 1200 µM in assay [3] (setting [4]).
The like results for `COc1ccc(C(=O)Nc2ccc3c(c2)[C@@]2(C)N=C(N)C(C)(C)S(=O)(=O)[C@@H]2C[C@H](C)O3)nc1` [Example 72, N-((4aR,6S,11bR)-2-amino-3,3,6,11b-tetramethyl-4,4-dioxido-4a,5,6,11b-tetrahydro-3H-[1]benzoxepino[4,5-b][1,4]thiazin-10-yl)-5-methoxy-2-pyridinecarboxamide] were, in that order, 0.011 µM, 0.005 µM, 1390 µM and over 1200 µM.
As for `C[C@H]1C[C@@H]2[C@](C)(N=C(N)C(C)(C)S2(=O)=O)c2cc(NC(=O)c3ncc(C(F)(F)F)cc3Cl)ccc2O1` [Example 73, N-((4aR,6S,11bR)-2-amino-3,3,6,11b-tetramethyl-4,4-dioxido-4a,5,6,11b-tetrahydro-3H-[1]benzoxepino[4,5-b][1,4]thiazin-10-yl)-3-chloro-5-(trifluoromethyl)-2-pyridinecarboxamide], the IC50 was 0.011 µM in assay [1]; 0.004 µM in assay [2] (Homo sapiens, HEK293); 1390 µM in assay [3] (read-out: CatD IC50); over 1200 µM in assay [3] (setting [4]).
On to `C[C@H]1C[C@@H]2[C@](C)(N=C(N)C(C)(C)S2(=O)=O)c2cc(NC(=O)c3cnc(OCC(F)(F)F)cn3)ccc2O1` [Example 74, N-((4aR,6S,11bR)-2-amino-3,3,6,11b-tetramethyl-4,4-dioxido-4a,5,6,11b-tetrahydro-3H-[1]benzoxepino[4,5-b][1,4]thiazin-10-yl)-5-(2,2,2-trifluoroethoxy)-2-pyrazinecarboxamide], for which the IC50 is 0.003 µM in assay [1]; 0.007 µM in assay [2] (Homo sapiens, HEK293); 871 µM in assay [3] (read-out: CatD IC50).
As to `C[C@H]1C[C@@H]2[C@](C)(N=C(N)C(C)(C)S2(=O)=O)c2cc(NC(=O)c3cnc(Cl)cn3)ccc2O1` [Example 75, N-((4aR,6S,11bR)-2-amino-3,3,6,11b-tetramethyl-4,4-dioxido-4a,5,6,11b-tetrahydro-3H-[1]benzoxepino[4,5-b][1,4]thiazin-10-yl)-5-chloro-2-pyrazinecarboxamide], the IC50 came to 0.004 µM in assay [1]; 0.061 µM in assay [2] (Homo sapiens, HEK293); 217 µM in assay [3] (read-out: CatD IC50).
With `C[C@H]1C[C@@H]2[C@](C)(N=C(N)C(C)(C)S2(=O)=O)c2cc(NC(=O)c3cnc(OCc4ncco4)cn3)ccc2O1` [Example 76, N-((4aR,6S,11bR)-2-amino-3,3,6,11b-tetramethyl-4,4-dioxido-4a,5,6,11b-tetrahydro-3H-[1]benzoxepino[4,5-b][1,4]thiazin-10-yl)-5-(1,3-oxazol-2-ylmethoxy)-2-pyrazinecarboxamide], the IC50 in assay [1] is 0.002 µM; in assay [2] (Homo sapiens, HEK293), 0.0009 µM; in assay [3] (read-out: CatD IC50), 1050 µM; in assay [3] (setting [4]), over 1200 µM.
Regarding `Cc1c(C(=O)Nc2ccc3c(c2)[C@@]2(C)N=C(N)C(C)(C)S(=O)(=O)[C@@H]2C[C@H](C)O3)nc2ccc(Cl)cn12` [Example 77, N-((4aR,6S,11bR)-2-amino-3,3,6,11b-tetramethyl-4,4-dioxido-4a,5,6,11b-tetrahydro-3H-[1]benzoxepino[4,5-b][1,4]thiazin-10-yl)-6-chloro-3-methylimidazo[1,2-a]pyridine-2-carboxamide], the IC50 in assay [1] stood at 0.017 µM; in assay [2] (Homo sapiens, HEK293) it was 0.005 µM; in assay [3] (read-out: CatD IC50) it was 396 µM.
With `Cc1cc(COc2cnc(C(=O)Nc3ccc4c(c3)[C@@]3(C)N=C(N)C(C)(C)S(=O)(=O)[C@@H]3C[C@H](C)O4)cn2)on1` [Example 78, N-((4aR,6S,11bR)-2-amino-3,3,6,11b-tetramethyl-4,4-dioxido-4a,5,6,11b-tetrahydro-3H-[1]benzoxepino[4,5-b][1,4]thiazin-10-yl)-5-((3-methyl-5-isoxazolyl)methoxy)-2-pyrazinecarboxamide], the IC50 in assay [1] worked out at 0.007 µM; in assay [2] (Homo sapiens, HEK293) it was 0.026 µM; in assay [3] (read-out: CatD IC50) it was 407 µM.
`CCCOc1cnc(C(=O)Nc2ccc3c(c2)[C@@]2(C)N=C(N)C(C)(C)S(=O)(=O)[C@@H]2C[C@H](C)O3)cn1` [Example 79, N-((4aR,6S,11bR)-2-amino-3,3,6,11b-tetramethyl-4,4-dioxido-4a,5,6,11b-tetrahydro-3H-[1]benzoxepino[4,5-b][1,4]thiazin-10-yl)-5-propoxy-2-pyrazinecarboxamide]: the IC50 in assay [1] was 0.005 µM; in assay [2] (Homo sapiens, HEK293), 0.016 µM; in assay [3] (read-out: CatD IC50), 841 µM.
